Source: patent US10172869B2, “Progesterone receptor modulators for use in the therapy of uterine fibroids” (PregLem SA, priority 2013, dated 2019)
Values belong to the compound of their own block, whether it stands above or below them.

Legend:
Assay type in all cases: in vivo, human
uterine fibroids [1] = experiment: Example 1 Phase III study: uterine bleeding, amenorrhea and return of menstruation (PBAC)
Procedure: (§1) Multicenter, Phase III Study to Investigate the Efficacy and Safety of 3-Months of Treatment with UPA Followed by 10 Days of Treatment with NETA or Placebo
(§2) All patients received a 3-month treatment course of UPA 10 mg once-daily followed by randomized oral NETA 10 mg once-daily or matching placebo for 10 days. UPA treatment was started during the first 4 days of menstruation. NETA or placebo was taken daily for the first 10 days following the cessation of UPA. The schedule incorporated the potential for women to enter an extension study involving repeated intermittent courses of UPA 10 mg.
(§3) In the clinical trial the effect of treatment of uterine fibroids have been assessed by means of parameters such as uterine bleeding using the pictorial blood-loss assessment chart (PBAC), condition of the uterus using transvaginal ultrasound (TVUS) and endometrial biopsy, endometrial histology using endometrial biopsy and pain using the Short-Form McGill Pain Questionnaire (SF-MPQ and quality of life using the Uterine Fibroid Symptom and Health-Related Quality of Life (UFS-QoL) questionnaire.
(§4) The efficacy end points were: percentage of amenorrheic patients at the end of UPA treatment; change from baseline in the volume of the three largest myomas to end of UPA treatment and 2 weeks after menstruation following end of NETA/placebo treatment; and change from baseline in pain and QoL to end of UPA treatment.
(§5) Exploratory endpoints included assessment of the strength of the first menstruation after UPA treatment (using PBAC), time to return of menstruation following treatment end, and frequency of post-treatment PAEC observed in the endometrial biopsy after return of menstruation.

[2] = Example 1 Phase III study: adverse events (TEAEs, SAEs)
Procedure: as §1, §2
(§6) The safety endpoints included the number and proportion of patients experiencing treatment-emergent adverse events (TEAEs), including clinically significant changes in vital signs, physical examination, gynecological or breast examination, electrocardiogram (ECG), ovarian ultrasound, changes from baseline in endometrial thickness and clinically significant changes in endometrium biopsy. Other safety endpoints were change from baseline in hematology, coagulation, biochemistry, lipids, adrenocorticotropic hormone (ACTH), thyroid stimulating hormone (TSH) and prolactin, as well as serum levels of estradiol (E2).

endometrium [3] = experiment: Example 1 Phase III study: endometrial histology (biopsy); conditions: for percentage of non-physiological endometrial features: after treatment, 10.9% at screening
Procedure: as §1, §2, §3, §6, §5

endometrium [4] = experiment: Example 1 Phase III study: endometrial thickness
Procedure: as §1, §2, §6

[5] = tested on: myomas and heavy uterine bleeding; experiment: Example 2 long-term extension study: uterine bleeding, amenorrhea and return of menstruation (PBAC); conditions: for subjects with more than 9 days of any level of bleeding (heavy bleeding, bleeding or spotting) / percentage of subjects in amenorrhea: ITT Population; for mean time to amenorrhea / median time to amenorrhea: from first dose of UPA in the course
Description: (§7) Long-Term Extension of a Multicenter, Phase III Study to Investigate the Efficacy and Safety of 3-Months of Treatment with UPA Followed by 10 Days of Treatment with NETA or Placebo in Subjects with Myomas and Heavy Uterine Bleeding
(§8) The study consisted of three periods of 3 months open-label UPA treatment, each followed by 10 days of double-blind treatment with NETA or placebo and then a drug-free period. Subjects were randomly assigned to a NETA or matching placebo arm with a 1:1 ratio.
In study described in Example 1, 251 subjects were screened at 21 sites and 209 subjects started treatment with UPA of which 202 attended the end of UPA treatment visit. Of those that completed study of Example 1 (190 subjects), 132 subjects from 19 sites opted to continue in to the extension study.
(§9) In the study of Example 1 and for each present study courses, UPA 10 mg was orally administered once daily for a period of 90 days, followed by 10 mg NETA or matching placebo once daily for a period of 10 days. The first treatment course in the present study consisted of 90 days UPA 10 mg treatment followed by 10 days of double-blind treatment (same as in Example 1 study) started between the first and fourth day of menstruation (inclusive) following visit after the end of treatment, or one month later if uterine sparing surgery had been performed and myomas were still present. The second and third treatment courses of the present study started on the first day of menstruation following visits after ends of each treatment courses, respectively.
(§10) Parameters assessed are the same as it was described in Example 1.

[6] = Example 2 long-term extension study: safety assessments (TEAEs, SAEs); conditions: intermittent repeated administration schedule
Description: as §7, §8, §9, §10

endometrium [7] = experiment: Example 2 long-term extension study: endometrium thickness and endometrium biopsy
Description: as §7, §8, §9, §10

uterine fibroids [8] = experiment: Example 1 Phase III study: volume of the three largest fibroids (TVUS)
Procedure: as §1, §2, §3, §4

uterine fibroids [9] = experiment: Example 1 Phase III study: pain (SF-MPQ, VAS) and quality of life (UFS-QoL); conditions: for pain assessed by the VAS, median change in score: median baseline 38
Procedure: as §1, §2, §3, §4

[10] = Example 1 Phase III study: serum hormones and biochemistry (E2, ACTH, TSH, prolactin, transaminases)
Procedure: as §1, §2, §6

myomas = experiment: Example 2 long-term extension study: volume of the 3 largest myomas and uterine volume
Description: as §7, §8, §9, §10

[11] = tested on: myomas and heavy uterine bleeding; experiment: Example 2 long-term extension study: pain (SF-MPQ) and quality of life (UFS-QoL, EQ-5D)
Description: as §7, §8, §9, §10

[12] = tested on: myomas and heavy uterine bleeding; experiment: Example 2 long-term extension study: surgery undertaken compared to planned; conditions: by the end of study; ITT population of 132, surgery initially planned for 66 (50%)
Description: as §7, §8, §9

[13] = from day 10 until end of treatment
[14] = from first day of menstruation on, or just prior to, first dose of UPA
[15] = follow-up visit, approximately 2 weeks after the third menstruation following 4th treatment course

extensive cyst formation (one of the features of PAEC) (endometrium [3]; after NETA treatment): 2.4%
percentage of non-physiological endometrial features (endometrium [3]): 22.6%
endometrial polyp (endometrium [3]; biopsy 12 weeks after UPA treatment): one benign endometrial polyp
cases of PAEC (endometrium [3]; biopsy 12 weeks after UPA treatment, subgroup): no case of PAEC
percentage of women with endometrial thickness >16 mm (endometrium [4]; after NETA double-blind treatment, 0% at screening): 3.5%
SMILES: C#C[C@]1(OC(C)=O)CC[C@H]2[C@@H]3CCC4=CC(=O)CC[C@@H]4[C@H]3CC[C@@]21C [NETA, norethindrone (norethisterone) acetate]
median return to menstruation following end of UPA treatment (uterine fibroids [1]; NETA 10 mg once-daily for 10 days after UPA, p≤0.001 vs placebo): 14.0 days
median change in PBAC score (uterine fibroids [1]; NETA treatment group, first menstruation following treatment completion compared to baseline, p=0.012 vs placebo): −122
women reporting events ([2]; double-blind treatment phase, 10 days after UPA): 11.2%
women with TEAEs ([2]; post-treatment phase): 26.5%
heaviness of bleeding as measured by the PBAC score (days 1-8) ([5]; first menstruation after each treatment course): decrease after each subsequent treatment course
median times to return of menstruation following discontinuation of UPA ([5]; treatment courses 1-4, NETA group compared to placebo group, p<0.001): significantly shorter
safety and tolerability assessment [6]: did not raise any safety concerns
endometrium thickness, comparison of the 2 treatment groups (endometrium [7]; after each treatment course): placebo group were higher compared to those for the NETA group

SMILES: CC(=O)O[C@]1(C(C)=O)CC[C@H]2[C@@H]3CCC4=CC(=O)CCC4=C3[C@@H](c3ccc(N(C)C)cc3)C[C@@]21C [UPA, 17α-acetoxy-11β[4-N,N-dimethylamino-phenyl)-19-norpregna-4,9-diene-3,20-dione]
percentage of amenorrheic patients (uterine fibroids [1]; end of 3-month UPA 10 mg once-daily treatment): 78.5%
overall total median change in PBAC score (uterine fibroids [1]; first menstruation following treatment completion compared to baseline, median baseline score 216): −91.5
patients on any particular day reporting any bleeding (uterine fibroids [1]; [13]): < 5%
patients on any particular day reporting heavy bleeding (uterine fibroids [1]; [13]): < 2%
mean time to amenorrhea (uterine fibroids [1]; [14]): 10.6 days
median time to amenorrhea (uterine fibroids [1]; [14]): 5.0 days
median change in the combined volume of the largest three fibroids (uterine fibroids [8]; after UPA treatment and return of menstruation): −45.8%
median change in the combined volume of the largest three fibroids (uterine fibroids [8]; between baseline and end of UPA treatment): −45.1%
women with a ≥25% reduction in the volume of the three largest fibroids (uterine fibroids [8]; in vivo): 74.7%
pain, median change from baseline score (uterine fibroids [9]; Week 5): −5.0
pain assessed by the VAS, median change in score (uterine fibroids [9]; Week 5): −21
pain, median change from baseline score (uterine fibroids [9]; Week 9): −6.0
pain assessed by the VAS, median change in score (uterine fibroids [9]; Week 9): −26
QoL symptom severity, median change from baseline score (uterine fibroids [9]; after UPA treatment): −34.4
health-related QoL (HRQL) total score, median increase compared to baseline (uterine fibroids [9]; after UPA treatment): 28.5
pain, median change from baseline score (uterine fibroids [9]; end of UPA treatment): −6.0
pain assessed by the VAS, median change in score (uterine fibroids [9]; end of UPA treatment): −25
SAE during the UPA treatment phase ([2]; UPA treatment phase): No SAE occurred
serious adverse events (SAEs) during the study ([2]; all post-treatment, considered not related to study medication): Three serious adverse events (SAEs) were reported for two patients
TEAE breast discomfort/tenderness, women ([2]; during UPA treatment): 3.8%
TEAE fatigue, women ([2]; during UPA treatment): 4.3%
TEAE headache, women ([2]; during UPA treatment): 16.3%
TEAE hot flushes, women ([2]; during UPA treatment): 4.8%
TEAE lower abdominal pain, women ([2]; during UPA treatment): 3.3%
TEAE nasopharyngitis, women ([2]; during UPA treatment): 6.7%
TEAE nausea, women ([2]; during UPA treatment): 3.8%
TEAE pelvic pain, women ([2]; during UPA treatment): 3.8%
TEAE vertigo, women ([2]; during UPA treatment): 3.8%
TEAEs classified as severe ([2]; during UPA treatment): 3.8%
women with TEAEs ([2]; during UPA treatment): 57.4%
women with TEAEs considered to be UPA related ([2]; during UPA treatment): 29.7%
mean E2 level ([10]; Visit 5, during UPA treatment, screening mean 149.9 pg/mL): 81.6 pg/mL
median E2 level ([10]; Visit 5, during UPA treatment, screening median 120.0 pg/mL): 55.0 pg/mL
changes in ACTH, TSH, or prolactin ([10]; during UPA treatment): No significant changes
hepatic transaminases ([10]; small number of patients, all resolved during continued treatment and/or by follow-up visit): marginal increase
percentage of non-physiological endometrial features (endometrium [3]): 25.6%
endometrial histology (endometrium [3]; biopsy 12 weeks after UPA treatment (n=38)): benign endometrial histology in all biopsies
endometrial histology (endometrium [3]; following double-blind treatment): benign in all cases
percentage of women with endometrial thickness >16 mm (endometrium [4]; end of UPA treatment, 1.5% at screening): 9.1%
patients with endometrial thickness >16 mm (endometrium [4]; three months later): none of the patients assessed had a thickness >16 mm
subjects with more than 9 days of any level of bleeding (heavy bleeding, bleeding or spotting) ([5]; days 9-90, treatment course 1): 15.9%
subjects with more than 9 days of any level of bleeding (heavy bleeding, bleeding or spotting) ([5]; days 9-90, treatment course 2): 6.3%
subjects with more than 9 days of any level of bleeding (heavy bleeding, bleeding or spotting) ([5]; days 9-90, treatment course 3): 3.4%
subjects with more than 9 days of any level of bleeding (heavy bleeding, bleeding or spotting) ([5]; days 9-90, treatment course 4): 3.9%
percentage of subjects in amenorrhea ([5]; end of treatment course 1): 79.5%
percentage of subjects in amenorrhea ([5]; end of treatment course 2): 88.5%
percentage of subjects in amenorrhea ([5]; end of treatment course 3): 88.2%
percentage of subjects in amenorrhea ([5]; end of treatment course 4): 89.7%
return to menstruation ([5]; following the end of each treatment course): al but 4 subjects with available data returned to menstruation
mean time to amenorrhea ([5]; treatment course 1): 9.4 days
median time to amenorrhea ([5]; treatment course 1): 4.0 days
mean time to amenorrhea ([5]; treatment course 2): 3.3 days
median time to amenorrhea ([5]; treatment course 2): 2.0 days
mean time to amenorrhea ([5]; treatment course 3): 5.3 days
median time to amenorrhea ([5]; treatment course 3): 3.0 days
mean time to amenorrhea ([5]; treatment course 4): 4.2 days
median time to amenorrhea ([5]; treatment course 4): 3.0 days
uterine volume measured by US (myomas; during the study, maintained after end of treatment): decreased during the study
total volume of the 3 largest myomas, mean percent change from screening (myomas; end of 4th treatment course): −53.53%
total volume of the 3 largest myomas, median percent change from screening (myomas; end of 4th treatment course): −72.08%
total volume of the 3 largest myomas, mean percent change from screening (myomas; [15]): −33.68%
total volume of the 3 largest myomas, median percent change from screening (myomas; [15]): −58.84%
patient-reported pain, 3 SF-MPQ Parts ([11]; all visits): improvement from baseline at all visits
UFS-QoL average symptom severity score ([11]; compared to baseline): improvement (decrease) from baseline
UFS-QoL HRQL total score ([11]; on average, compared to baseline): improvement (increase)
ED-5D questionnaire, pain/discomfort and anxiety/depression dimensions ([11]; throughout the study): improvement was sustained throughout the study
subjects for whom surgery was not performed [12]: 94.7%
safety and tolerability assessment [6]: well tolerated
endometrium biopsy diagnosis by consensus review (endometrium [7]; all biopsy samples, 3 independent pathologists): diagnosis of benign endometrium
incidence of non-physiological changes in endometrium biopsy samples (endometrium [7]; epithelial changes, unusual vascular changes, extensive cyst formation): highest in samples taken following first treatment course and second treatment course
endometrium thickness (endometrium [7]; following a single treatment course of 3 months UPA): an increase in endometrium thickness was observed
frequency of PAEC (endometrium [7]; long-term repeated administration): independent of length of treatment
